# Source: US20250170127A1, “RE-SENSITIZING MULTIDRUG-RESISTANT (MDR) GRAM-NEGATIVE BACTERIA TO COLISTIN USING IONOPHORES” (The Regents of the University of Colorado, a body corporate, priority 2022, published 2025)
# “And” between values parts separate entries of the source, which are not always exact repeats. Equal values may be shown once.
# How the values were obtained:
# [1] = test system: P. aeruginosa AR-0768; experiment: Colistin MIC in the absence or presence of RMA compound; type: cell-based
# Description: (§1) To investigate the scope of the colistin-potentiation effect of compound 3, the present inventors screened a panel of MDR Gram-negative bacteria obtained from the CDC and FDA Antibiotic Resistance Bank. These include a variety of Enterobacteriaceae spp., such as E. coli AR-0346 and AR-0538, K. pneumoniae AR-0497, Salmonella Enteritidis AR-0496, and Salmonella Typhimurium AR-0635. These strains all express the mcr genes (e.g., mcr-1, mcr-2, and mcr-4) and are resistant to colistin with its MICs of 8-16 μg/mL (Table 2). […] The only exception is Salmonella Typhimurium AR-0635, which expresses mcr-4 gene. […]. […]. Furthermore, the present inventors also tested the activity of colistin in the presence or absence of 1 μg/mL compound 3 in a wild-type E. coli K-12. […] The MICs of compound 3 in all these strains were >64 μg/mL, the highest concentration tested.
# [2] = test system: Salmonella Typhimurium AR-0635; experiment: as above; type: cell-based; conditions: Salmonella Typhimurium AR-0635
# Description: as §1
# (§2) To evaluate the mammalian toxicity of these analogs, Applicants tested them in cell viability assay using human cervical adenocarcinoma HeLa cells. Their respective half maximal growth inhibition concentration (GI50) was calculated using KaleidaGraph. The selectivity index (SI) for each compound was also calculated as the ratio of their GI50 and MRC. […] Therefore, Applicants selected two bisanilino analogs, 7l and 7m, that bear chlorines at the meta- and para-positions, respectively, of the phenyl groups for further characterization studies. […]. […] Their mammalian toxicities were also evaluated, and SIs calculated. […] Applicants we next explored the scope of analogs 71 and 7m their colistin-potentiating activity in 8 different MDR Gram negative bacteria with diverse genetic backgrounds and resistance mechanisms (Table 7). All strains were obtained from CDC and FDA Antibiotic Resistance Bank. For example, E. coli AR-0493 and K. pneumoniae AR-0497 carry the plasmid that contains the most prevalent mcr-1 gene. E. coli AR-0538, Salmonella Typhimurium AR-0539 and AR-0635 contain the mcr-2, 3, and 4 genes, respectively. These genes encode the phosphoethanolamine transferase, which was originated form the chromosome of A. baumannii, such as AR-0310. […]. A. baumannii AR-0310 appears more sensitive to these two compounds and the MICs of colistin was reduced to 0.25 μg/mL.
# (§3) General Methods. MDR strains E. coli AR-0493, AR-0346, and AR-0538, Salmonella Enteritidis AR-0496, Salmonella Typhimurium AR-0635, K. pneumoniae AR-0497, A. baumannii AR-0300 and AR-0310 were all obtained from the CDC & FDA Antibiotic Resistance Isolate Bank. E. coli K-12 was a gift from the Copley lab (Department of MCD Biology, University of Colorado Boulder). HeLa cells were purchased from the ATCC. All bacterial strains were grown on trypticase soy agar supplemented with 5% sheep blood (BAP). Bacteria were then cultured in Luria-Bertani (LB) medium at 35° C. until they achieve the log phase before screening or antimicrobial testing using CAMHB media. MIC, MRC, and checkerboard analyses and mammalian growth inhibition analyses in Hela cells were performed as described previously. More details are given in Supporting information.
# [3] = test system: A. baumannii AR-0310; experiment: as above; type: cell-based
# Description: as §1, §2, §3
# [4] = test system: K. pneumoniae AR-0497; experiment: as above; type: cell-based; conditions: K. pneumoniae AR-0497
# Description: as §1, §2, §3
# [5] = test system: E. coli AR-0538; experiment: as above; type: cell-based; conditions: E. coli AR-0538
# Description: as §1, §2, §3
# [6] = test system: E. coli AR-0493; experiment: as above; type: cell-based; conditions: E. coli AR-0493
# Description: as §1, §2, §3
# [7] = test system: HeLa cells; experiment: in vitro; type: cell-based, human; conditions: GI50 in HeLa / MRC in AR-0493
# Procedure: (§4) These 10 compounds were tested for their MICs and minimum re-sensitizing concentrations (MRCs) in the presence colistin at 2 μg/mL in E. coli AR-0493. […] To evaluate their toxicity in mammalian cells, the present inventors treated human epithelial adenocarcinoma HeLa cells with each compound at a wide range of concentrations.
# as §2, §3
# [8] = in vitro; type: cell-based, human; conditions: human
# Procedure: as §4, §2, §3
# [9] = test system: E. coli AR-0493; experiment: Minimum re-sensitizing concentration (MRC) in the presence of colistin; type: cell-based; conditions: in AR-0493
# Procedure: These 10 compounds were tested for their MICs and minimum re-sensitizing concentrations (MRCs) in the presence colistin at 2 μg/mL in E. coli AR-0493.
# The present inventors further conducted MRC screens of selected compounds from groups 2-5 in AR-0493. Compound were tested against AR-0493 with compound X+2 μg/mL Colistin.
# All compounds were tested for their respective minimum resensitizing concentrations (MRCs) for colistin against E. coli. AR0493, a MDR strain from CDC and FDA Antibiotic Resistance Bank. […] For the symmetrical bisanilino series, 7a-p, electron-donating alkyl and alkoxy groups (entries 7a-g, Table 5) at various positions of the phenyl rings were investigated. […] Three asymmetric bisanilino analogs (7q-s, Table 5) were synthesized based on the SARs of the monoanilino analogs 8a-p (vide infra).
# as §3
# [10] = test system: E. coli AR-0493; experiment: Checkerboard broth microdilution assay with colistin; type: cell-based
# Procedure: FIG. 2. […] AR-0493. Data represent the mean OD (600 nm) in two biological replicates.
# To further confirm the synergistic effect of compound 3 and colistin, the checkerboard broth microdilution assay was performed (FIG. 2).
# as §3
# [11] = test system: E. coli AR-0493; experiment: MIC, CLSI broth microdilution, substance alone; type: cell-based; conditions: Escherichia coli, AR0493, read-out: MIC
# Procedure: A MDR E. coli strain AR-0493 (a.k.a., ATCC BAA-3170) was obtained from the CDC and FDA Antibiotic Resistance Bank and used for the initial screen. […] Considering the difficulties on the discovery of novel antimicrobial reagents against Gram-negative bacteria, we chose to screen the fragment-based library of 3,200 compounds from TimTec (Tampa, FL). […] The screen used a modified broth microdilution assay.
# as §4, with “concentrations. […]” for “concentrations.”
# as §3
# [12] = test system: MDR Gram-negative bacteria; experiment: MICs across a panel of MDR Gram-negative bacteria (summary statements); type: cell-based
# Description: as §1, §2, §3
# [13] = test system: E. coli AR-0346; experiment: Colistin MIC in the absence or presence of RMA compound; type: cell-based; conditions: E. coli AR-0346
# Description: as §1, §3
# [14] = test system: E. coli K-12; experiment: as above; type: cell-based; conditions: in the presence of 1 μg/mL of compound 3; E. coli K-12
# Description: as §1, §3
# [15] = test system: A. baumannii AR-0300; experiment: as above; type: cell-based
# Description: as §1, §3
# [16] = test system: Salmonella Enteritidis AR-0496; experiment: as above; type: cell-based; conditions: Salmonella Enteritidis AR-0496
# Description: as §1, §3
# [17] = in the presence of 1 μg/mL of compound 3
# [18] = 1 μg/mL compound 3, almost all mcr-expressing Enterobacteriaceae strains of Table 2
structure (smiles),measurement,setting,value
Cc1cccc(Nc2nc3nonc3nc2Nc2cccc(C)c2)c1 [Compound 3],Folds of potentiation,[1]; 1 μg/mL of compound 3,4 folds
same,Colistin MIC (+3),[1]; [17],4 µg/mL
same,Folds of potentiation,[2]; 2 μg/mL of compound 3,16 folds
same,Colistin MIC (+3),[2]; [17],4 µg/mL
same,Colistin MIC (+3),[2]; in the presence of 2 μg/mL of compound 3,1 μg/mL and 1^c μg/mL
same,Folds of potentiation,[3]; 1 μg/mL of compound 3,32 folds
same,Colistin MIC (+3),[3]; [17],0.5 µg/mL
same,Folds of potentiation,[4]; 1 μg/mL of compound 3,16 folds
same,Colistin MIC (+3),[4]; [17],0.5 µg/mL
same,Folds of potentiation,[5]; 1 μg/mL of compound 3,16 folds
same,Colistin MIC (+3),[5]; [17],0.5 µg/mL
same,Folds of potentiation,[6]; 1 μg/mL of compound 3,16 folds
same,Colistin MIC (+3),[6]; [17],1 µg/mL
same,"SI (Selective Index), ratio of GI50 and MRC",[7],30
same,GI50 at 24 h,[8],15 µg/mL
same,MRC,[9],0.5 µg/mL
same,fractional inhibitory concentration index (FICI),"[10]; compound and colistin, E. coli AR-0493",< 0.06
same,potentiation of colistin in checkerboard assay,"[10]; mean OD (600 nm), FIG. 2",dose-dependent potentiation of colistin
same,MIC,[11],> 64 µg/mL
same,Colistin MIC (+3),[12]; [18],0.5 to 1 µg/mL
same,folds of potentiation for colistin,[12]; [18],16 folds
same,MIC,"[12]; compound alone, all strains of Table 2, highest concentration tested",> 64 µg/mL
same,Folds of potentiation,[13]; 1 μg/mL of compound 3,16 folds
same,Colistin MIC (+3),[13]; [17],0.5 µg/mL
same,Colistin MIC (+3),[14],0.25 µg/mL
same,Folds of potentiation,[15]; 1 μg/mL of compound 3,32 folds
same,Colistin MIC (+3),[15]; [17],0.25 µg/mL
same,Folds of potentiation,[16]; 1 μg/mL of compound 3,16 folds
same,Colistin MIC (+3),[16]; [17],1 µg/mL
